Data published in patent US6635437B2, “Compounds, compositions and methods for generating chemiluminescence with phosphatase enzymes” (Lumigen, Inc., priority 1996, dated 2003).

Key:
Type in all cases: biochemical
[1] = test system: alkaline phosphatase (AP); assay: Chemiluminescent detection of alkaline phosphatase with acridan phosphate and surfactant enhancer; details: for Rel. (S/B normalized to the results obtained with no enhancer) / S/B (ratio of light intensities with AP and with no enzyme): acridan 1 with 10^−16 mol of AP, each surfactant at the concentration producing the greatest enhancement
[2] = test system: alkaline phosphatase (AP); assay: Chemiluminescent detection of alkaline phosphatase with acridan phosphate and cationic aromatic compound (CAC); details: for S at 36 min (plateau intensity): 21 mM CAC in DMSO diluted 1:1000 into compound 5 in 0.1 M tris pH 8.8
[3] = test system: acid phosphatase (AcP); assay: Chemiluminescent detection of acid phosphatase and inhibition by tartrate
Description: The quenching of emission was not due to a reduction of the pH since addition of 10 μL of citrate buffer caused only a 25% reduction in light intensity.

[4] = 4×10^−16 mol AP, room temperature

Row | Molecule | Rel. (S/B normalized to the results obtained with no enhancer) [1] | S/B (ratio of light intensities with AP and with no enzyme) [1] | S at 36 min (plateau intensity) [2, 4] | also measured
1 | 1-trioctylphosphoniummethyl-4-tributylammonium-methylbenzene, mixed bromide chloride salt [Surfactant G] | 4.5 | 63 |  | 
2 | 9-(2,6-Dimethylphenylthiophosphoryloxymethylidene)-10-methylacridan. disodium salt [Compound 9] |  |  | 781 | 
3 | 9-(2′,2′,2′-Trifluoroethylthiophosphoryloxymethylidene)-10-methylacridan, disodium salt [Compound 11] |  |  | 9.3 | 
4 | 9-(3,5-Dimethylphenoxy)phohosphoryloxymethylidene)-10-methylacridan. disodium salt [Compound 2] |  |  | 45.3 | 
5 | 9-(4-Fluorophenylthiophosphoryloxymethylidene)-10-methylacridan, disodium salt [Compound 7] |  |  | 61.6 | time to stable plateau of chemiluminescence intensity ([2]; 0.66 mM 7, 6.4 μM lucigenin, SDS, Na2SO3, TWEEN 20, tris pH 8.8, 8×10^−16 mol AP, room temperature): under 5 sec
6 | 9-(4-Methoxyphenylthiophosphoryloxymethylidene)-10-methylacridan, disodium salt [Compound 8] |  |  | 19.1 | 
7 | 9-(Phenylthiophosphoryloxymethylidene)-2,7-difluoro-10-methylacridan, disodium salt [Compound 10] |  |  | 21.1 | 
8 | C[n+]1c2ccccc2c(-c2c3ccccc3[n+](C)c3ccccc23)c2ccccc21.O=[N+]([O-])[O-].O=[N+]([O-])[O-] [CAC 1, N,N′-dimethylbiacridinium dinitrate, reference compound] |  |  |  | effect of lucigenin on light intensity ([2]; 6.4 μM lucigenin, 0.66 mM 5, 0.1 M tris pH 8.8, 8×10^−16 mol AP, 25° C.): much higher light intensity; signal (S) versus control without lucigenin ([2]; 6.4 mM to 6.4 nM lucigenin, 0.66 mM 5, tris pH 8.8, 4×10^−16 mol AP, 3.5 min, room temperature): higher signal (S) than the control
9 | O=S([O-])[O-].[Na+].[Na+] [Na2SO3, sodium sulfite] |  |  |  | background signal (B) in the absence of AP versus control ([2]; Na2SO3 1.0 mg/mL to 1.0 μg/mL in Reagent A): lower background signal (B); signal (S) versus control ([2]; Na2SO3 1.0 mg/mL to 1.0 μg/mL in Reagent A, 4×10^−16 mol AP, 3.5 min, room temperature): higher signal (S) than the control
10 | CCCCCCCC[P+](CCCCCCCC)(CCCCCCCC)Cc1ccc(C[P+](CCCC)(CCCC)CCCC)cc1.[Cl-].[Cl-] [Surfactant E, 1-trioctylphosphoniummethyl-4-tributylphosphonium-methylbenzene dichloride] | 11.6 | 162 |  | 
11 | CCCCCCCCCCCCOS(=O)(=O)[O-].[Na+] [Surfactant H, sodium dodecyl sulfate] | 1.9 | 26 |  | rise to peak signal versus control without SDS ([2]; SDS 10 mg/mL to 10 μg/mL, 0.66 mM 5, tris pH 8.8, 4×10^−16 mol AP, room temperature): faster rise to peak signal
12 | CCCCCCCCCCCCCCCC[N+](C)(C)C.[Br-] [Surfactant I, cetyltrimethylammonium bromide] | 1.7 | 24 |  | 
13 | CCCCCCCC[N+](CCCCCCCC)(CCCCCCCC)Cc1ccc(C[N+](CCCC)(CCCC)CCCC)cc1.[Cl-].[Cl-] [Surfactant J, 1-trioctylammoniumnmethyl-4-tributylammoniummethylbenzene dichloride] | 1.2 | 17 |  | 
14 | CN1c2ccccc2C(C(=O)Oc2ccccc2)c2ccccc21 [phenyl 10-methylacridan-9-carboxylate, reference compound] |  |  |  | effect of addition of AP on chemiluminescence ([1]; composition as Example 14 with the ester in place of 1): no effect
15 | O=C(O)C(O)C(O)C(=O)O (stereo not shown) [tartrate, reference compound] |  |  |  | effect on light emission (inhibition of enzyme activity) ([3]; addition of 5 μL of 0.04 M tartrate in citrate buffer (0.09 M, pH 4.8)): complete extinction of light emission
16 | (E, Z)-9-(2,6-Dimethylphenoxy)phosphoryloxymethylidene)-3-chloro-10-methylacridan, disodium salt [Compound 4] |  |  | 4645 | 
17 | (E,Z)-9-(Phenoxy)phosphoryloxymethylidene)-3-methoxy-10-methylacridan, disodium salt [Compound 3] |  |  | 5963 | 
18 | (E,Z)-9-(Phenoxy)phosphoryloxymethylidene)-12-methylbenz[c]acridan, disodium salt [Compound 6] |  |  | 72.3 | 
19 | bovine serum albumin: the protein bovine serum albumin, added to the detection reagent |  |  |  | effect on duration of light emission ([3]; added to the detection reagent at 0.1%): prolonged the duration of light emission significantly
20 | polyoxyethylene(20)sorbitan monolaurate [Surfactant F] | 8.6 | 120 |  | effect on duration of chemiluminescence ([2]; TWEEN 20 1.0% to 0.001%, Reagent A with 21 μM lucigenin, lacking Na2SO3, 4×10^−16 mol AP): effective in extending the duration of chemiluminescence at or near maximum intensity
